Experiment [1] has as its target T1, Estrogen receptor beta (Homo sapiens, UniProt Q92731). The experiment can be described thus: ERβ–SRC-3 coactivator interaction inhibitors, confirmation, orthogonal assay, biochemical, ELISA, streptavidin-HRP readout (AID 1060).
Experiment [2] deals with T2, Estrogen receptor (Homo sapiens, UniProt P03372).
T2 sequence (P03372 whole entry): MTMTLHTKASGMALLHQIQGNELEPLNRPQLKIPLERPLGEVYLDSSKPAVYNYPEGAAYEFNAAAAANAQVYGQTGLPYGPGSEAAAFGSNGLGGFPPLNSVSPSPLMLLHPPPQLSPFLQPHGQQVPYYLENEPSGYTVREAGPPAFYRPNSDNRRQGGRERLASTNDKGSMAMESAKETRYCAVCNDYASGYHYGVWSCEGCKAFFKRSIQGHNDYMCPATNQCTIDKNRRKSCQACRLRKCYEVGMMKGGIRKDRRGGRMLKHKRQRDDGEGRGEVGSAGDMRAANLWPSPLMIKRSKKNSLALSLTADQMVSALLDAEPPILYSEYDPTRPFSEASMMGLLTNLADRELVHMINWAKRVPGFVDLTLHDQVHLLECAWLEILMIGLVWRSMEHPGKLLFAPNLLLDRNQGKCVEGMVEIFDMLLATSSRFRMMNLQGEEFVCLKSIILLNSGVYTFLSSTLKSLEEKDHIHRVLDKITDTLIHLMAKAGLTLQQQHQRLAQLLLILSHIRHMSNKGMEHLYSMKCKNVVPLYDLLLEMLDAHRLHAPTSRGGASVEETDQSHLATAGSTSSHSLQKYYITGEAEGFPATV

Experiment [3] deals with T1, Estrogen receptor beta.
Experiment [4] is described as follows: inhibitors of intracellular T. cruzi replication, confirmation, NIH3T3 host cells, beta-gal luminescence (AID 2044).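 Note: intracellular parasites grown in NIH/3T3 mouse fibroblasts as host cells; luminescent beta-galactosidase reporter signal from transgenic T. cruzi replicating inside host cells; inhibitors lower the luminescence signal.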 The format is functional, cell-based.
For experiment [5], the target named is T3, Short transient receptor potential channel 4 (Mus musculus, UniProt Q9QUQ5).
T3 sequence (Q9QUQ5 whole entry): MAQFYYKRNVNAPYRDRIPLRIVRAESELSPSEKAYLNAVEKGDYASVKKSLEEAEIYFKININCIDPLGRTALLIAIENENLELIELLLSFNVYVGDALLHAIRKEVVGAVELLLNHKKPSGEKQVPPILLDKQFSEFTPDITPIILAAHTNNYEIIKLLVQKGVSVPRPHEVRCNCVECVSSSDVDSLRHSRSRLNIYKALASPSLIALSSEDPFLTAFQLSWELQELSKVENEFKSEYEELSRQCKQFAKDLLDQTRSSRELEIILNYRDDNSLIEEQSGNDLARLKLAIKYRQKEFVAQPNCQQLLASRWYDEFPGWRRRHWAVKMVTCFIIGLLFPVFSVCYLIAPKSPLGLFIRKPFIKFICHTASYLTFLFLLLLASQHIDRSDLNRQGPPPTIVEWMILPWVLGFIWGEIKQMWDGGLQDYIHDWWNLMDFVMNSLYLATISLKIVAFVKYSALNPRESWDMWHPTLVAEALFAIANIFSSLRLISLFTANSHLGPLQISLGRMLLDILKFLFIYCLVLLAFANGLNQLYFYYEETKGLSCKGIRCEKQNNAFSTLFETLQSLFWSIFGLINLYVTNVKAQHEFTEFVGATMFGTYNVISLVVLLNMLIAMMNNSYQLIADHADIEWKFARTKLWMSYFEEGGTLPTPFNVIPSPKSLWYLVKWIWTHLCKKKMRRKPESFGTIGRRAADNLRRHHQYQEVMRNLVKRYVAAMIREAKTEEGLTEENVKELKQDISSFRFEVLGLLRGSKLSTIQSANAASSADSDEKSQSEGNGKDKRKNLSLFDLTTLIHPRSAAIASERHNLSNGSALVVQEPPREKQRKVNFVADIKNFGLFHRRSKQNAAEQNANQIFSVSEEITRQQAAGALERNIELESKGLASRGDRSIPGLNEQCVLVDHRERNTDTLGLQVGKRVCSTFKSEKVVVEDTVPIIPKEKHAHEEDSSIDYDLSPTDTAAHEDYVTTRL
The experiment can be described thus: mouse TRPC4 channel inhibitors, dose response, cell-based, HEK293 TRPC4/mu-opioid, Fluo-4 calcium (AID 434942).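 Note: potency of inhibitors blocking the TRPC4 calcium response.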 Format: functional.

Experiment [6] in a line: cytotoxicity toward NIH3T3 fibroblasts, dose response, counter-screen, cell-based, ATP luminescence, mouse fibroblasts (AID 2010).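 Note: cells exposed to compound for about 90 hours before reading.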 Format: functional.
The nature of experiment [7]: cells.
Experiment [8] is described as follows: Luminescence Cell-Based Dose Confirmation HTS to Identify Inhibitors of Polyadenylation. The format is functional.
Experiment [9] is described as follows: polyadenylation inhibitors in yeast reporter, dose response, luminescence, S. cerevisiae SKY197-pL101 (AID 2525). Format: functional, cell-based.
In experiment [10] the target is Transitional endoplasmic reticulum ATPase (Homo sapiens, UniProt P55072, C522A). Kind of experiment: C522A mutant p97 ATPase inhibitors, dose response, counter-screen for p97 inhibitor project, biochemical, luminescence (AID 1544).
A short description of experiment [11]: HEp-2 cell cytotoxicity, dose response, cytotoxicity control for RSV inhibitor project, HTS (AID 2410). The format is functional. As to conditions: human respiratory syncytial virus.
In experiment [12] the target is Transitional endoplasmic reticulum ATPase (Homo sapiens, UniProt P55072). Kind of experiment: p97 ATPase inhibitors, dose response, biochemical (AID 1534).
The target of experiment [13] is T4, High affinity choline transporter 1 (Homo sapiens, UniProt Q9GZV3).
T4 sequence (Q9GZV3 whole entry): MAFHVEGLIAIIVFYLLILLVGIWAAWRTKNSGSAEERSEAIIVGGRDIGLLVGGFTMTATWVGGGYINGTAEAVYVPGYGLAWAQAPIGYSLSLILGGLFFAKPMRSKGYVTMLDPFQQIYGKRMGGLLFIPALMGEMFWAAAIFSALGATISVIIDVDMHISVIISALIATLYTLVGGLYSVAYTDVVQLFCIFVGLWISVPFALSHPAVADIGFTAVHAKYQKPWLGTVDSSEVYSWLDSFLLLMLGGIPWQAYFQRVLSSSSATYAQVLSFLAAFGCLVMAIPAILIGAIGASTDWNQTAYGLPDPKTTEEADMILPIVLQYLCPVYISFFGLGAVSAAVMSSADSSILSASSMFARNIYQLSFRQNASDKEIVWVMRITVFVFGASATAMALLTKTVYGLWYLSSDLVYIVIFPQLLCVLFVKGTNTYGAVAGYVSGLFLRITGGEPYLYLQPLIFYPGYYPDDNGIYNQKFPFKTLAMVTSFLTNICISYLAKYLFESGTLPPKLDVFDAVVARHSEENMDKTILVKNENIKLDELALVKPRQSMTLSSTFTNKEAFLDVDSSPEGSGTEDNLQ
Kind of experiment: CHT inhibitors, dose response, cell-based, 5-point CRC, membrane potential dye (AID 504840). The format is functional.

The target of experiment [14] is T4, High affinity choline transporter 1. The experiment can be described thus: CHT inhibitors, dose response, cell-based, 10-point CRC, membrane potential dye (AID 588401).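 Note: membrane potential dye fluorescence of choline-evoked depolarization via CHT.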 The format is functional.
Experiment [15] in a line: cells. The source holds these as a separate data set.
Experiment [16] addresses T5, Mannose-6-phosphate isomerase (Homo sapiens, UniProt P34949).
T5 sequence (P34949 whole entry): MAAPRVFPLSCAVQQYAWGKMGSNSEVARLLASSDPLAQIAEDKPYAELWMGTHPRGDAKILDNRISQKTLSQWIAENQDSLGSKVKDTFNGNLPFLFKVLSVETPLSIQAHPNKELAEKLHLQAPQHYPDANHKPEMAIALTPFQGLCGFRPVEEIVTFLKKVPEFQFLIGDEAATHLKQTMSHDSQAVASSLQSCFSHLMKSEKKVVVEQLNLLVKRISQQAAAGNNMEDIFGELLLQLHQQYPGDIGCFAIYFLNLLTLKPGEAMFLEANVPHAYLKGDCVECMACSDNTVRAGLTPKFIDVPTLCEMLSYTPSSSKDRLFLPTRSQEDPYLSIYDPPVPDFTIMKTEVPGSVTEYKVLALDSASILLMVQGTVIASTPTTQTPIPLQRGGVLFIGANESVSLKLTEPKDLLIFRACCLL
Kind of experiment: human PMI inhibitors, high substrate, primary screen, biochemical, fluorescence intensity, high mannose 6-phosphate (AID 1220).

Experiment [17] addresses T5, Mannose-6-phosphate isomerase. The experiment can be described thus: inhibitors of human PMI, primary screen, biochemical, fluorescence intensity, coupled assay (AID 1209).
Experiment [18] in a line: cytotoxicity in KRAS-transformed pancreatic duct cells, primary screen, cell-based, fluorescence, HTS (AID 431).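 Note: cell line used: HPDE-C7K.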 Format: functional. As to conditions: Homo sapiens.
The nature of experiment [19]: cytotoxicity in HPDE-C7 cells, cell-based, fluorescence, HTS (AID 430). The format is functional. The following applies: Homo sapiens.
For experiment [20], the target named is T6, Bcl-2-related protein A1 (Mus musculus, UniProt Q07440).
T6 sequence (Q07440 whole entry): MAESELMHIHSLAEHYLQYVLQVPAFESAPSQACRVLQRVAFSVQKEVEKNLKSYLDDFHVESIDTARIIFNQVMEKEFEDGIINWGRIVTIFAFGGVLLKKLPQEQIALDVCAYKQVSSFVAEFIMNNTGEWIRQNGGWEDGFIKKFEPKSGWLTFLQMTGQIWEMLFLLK
The experiment can be described thus: Bfl-1 binding inhibitors, SAR follow-up, biochemical, fluorescence polarization (AID 1070).

Experiment [21] deals with Glyceraldehyde-3-phosphate dehydrogenase (Homo sapiens, UniProt P04406).
Experiment [22] deals with T6, Bcl-2-related protein A1. Kind of experiment: Bfl-1 inhibitors blocking BH3 peptide binding, confirmation, biochemical, TR-FRET, mouse Bfl-1 (AID 621).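 Note: TR-FRET binding of GST-Bfl-1 to FITC-labelled Bid peptide via terbium antibody.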
The target of experiment [23] is T6, Bcl-2-related protein A1. The experiment can be described thus: Bfl-1 inhibitors, primary screen, biochemical, fluorescence polarization, FITC-Bid, mouse (AID 432).
A short description of experiment [24]: A Cell Based Secondary Assay To Explore Cytotoxicity of Compounds that Sensitize Mycobacterium Tuberculosis to Beta-Lactam Antibiotics. The format is functional.
In experiment [25] the target is T7, Rac GTPase-activating protein 1 (Homo sapiens, UniProt Q9H0H5).
T7 sequence (Q9H0H5 whole entry): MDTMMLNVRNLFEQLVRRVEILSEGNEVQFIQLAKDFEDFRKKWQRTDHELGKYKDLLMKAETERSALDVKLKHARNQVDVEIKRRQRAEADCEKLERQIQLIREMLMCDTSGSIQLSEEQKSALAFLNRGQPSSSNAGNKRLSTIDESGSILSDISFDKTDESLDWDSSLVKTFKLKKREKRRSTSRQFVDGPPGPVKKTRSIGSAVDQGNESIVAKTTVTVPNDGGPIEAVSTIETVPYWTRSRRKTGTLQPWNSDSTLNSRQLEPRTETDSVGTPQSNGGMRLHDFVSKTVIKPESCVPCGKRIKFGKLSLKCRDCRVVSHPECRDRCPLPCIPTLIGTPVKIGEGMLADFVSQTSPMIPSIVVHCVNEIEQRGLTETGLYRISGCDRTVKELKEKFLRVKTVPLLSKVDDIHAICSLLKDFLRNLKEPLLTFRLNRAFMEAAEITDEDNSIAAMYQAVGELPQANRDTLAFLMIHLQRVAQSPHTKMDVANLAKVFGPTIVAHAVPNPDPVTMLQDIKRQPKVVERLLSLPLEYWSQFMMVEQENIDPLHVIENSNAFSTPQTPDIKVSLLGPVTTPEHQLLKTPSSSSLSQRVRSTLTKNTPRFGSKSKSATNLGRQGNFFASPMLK
The experiment can be described thus: MgcRacGAP GTPase-activating activity inhibitors, confirmation, biochemical, ADP Hunter fluorescence, primary and confirmatory (AID 624330). The format is functional.

Each structure is given as a SMILES string. The source made the active and inactive calls.

T1 sequence (Q92731 whole entry): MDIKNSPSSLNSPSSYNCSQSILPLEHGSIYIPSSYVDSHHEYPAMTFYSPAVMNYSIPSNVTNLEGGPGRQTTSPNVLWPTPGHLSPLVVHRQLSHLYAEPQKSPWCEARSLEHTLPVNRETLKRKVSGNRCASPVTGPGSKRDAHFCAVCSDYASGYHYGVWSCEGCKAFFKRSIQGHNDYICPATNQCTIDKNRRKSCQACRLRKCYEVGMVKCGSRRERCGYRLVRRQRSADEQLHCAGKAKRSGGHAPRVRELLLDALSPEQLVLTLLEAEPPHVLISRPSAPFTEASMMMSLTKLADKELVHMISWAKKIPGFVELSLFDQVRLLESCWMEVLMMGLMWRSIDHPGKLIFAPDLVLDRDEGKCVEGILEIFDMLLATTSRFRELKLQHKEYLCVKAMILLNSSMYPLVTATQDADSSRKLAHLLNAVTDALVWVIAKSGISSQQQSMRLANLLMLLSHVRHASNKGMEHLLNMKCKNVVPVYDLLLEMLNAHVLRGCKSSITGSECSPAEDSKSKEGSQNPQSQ
Chain of Transitional endoplasmic reticulum ATPase (Homo sapiens, UniProt P55072, C522A) (P55072 2-806 C522A limits assumed): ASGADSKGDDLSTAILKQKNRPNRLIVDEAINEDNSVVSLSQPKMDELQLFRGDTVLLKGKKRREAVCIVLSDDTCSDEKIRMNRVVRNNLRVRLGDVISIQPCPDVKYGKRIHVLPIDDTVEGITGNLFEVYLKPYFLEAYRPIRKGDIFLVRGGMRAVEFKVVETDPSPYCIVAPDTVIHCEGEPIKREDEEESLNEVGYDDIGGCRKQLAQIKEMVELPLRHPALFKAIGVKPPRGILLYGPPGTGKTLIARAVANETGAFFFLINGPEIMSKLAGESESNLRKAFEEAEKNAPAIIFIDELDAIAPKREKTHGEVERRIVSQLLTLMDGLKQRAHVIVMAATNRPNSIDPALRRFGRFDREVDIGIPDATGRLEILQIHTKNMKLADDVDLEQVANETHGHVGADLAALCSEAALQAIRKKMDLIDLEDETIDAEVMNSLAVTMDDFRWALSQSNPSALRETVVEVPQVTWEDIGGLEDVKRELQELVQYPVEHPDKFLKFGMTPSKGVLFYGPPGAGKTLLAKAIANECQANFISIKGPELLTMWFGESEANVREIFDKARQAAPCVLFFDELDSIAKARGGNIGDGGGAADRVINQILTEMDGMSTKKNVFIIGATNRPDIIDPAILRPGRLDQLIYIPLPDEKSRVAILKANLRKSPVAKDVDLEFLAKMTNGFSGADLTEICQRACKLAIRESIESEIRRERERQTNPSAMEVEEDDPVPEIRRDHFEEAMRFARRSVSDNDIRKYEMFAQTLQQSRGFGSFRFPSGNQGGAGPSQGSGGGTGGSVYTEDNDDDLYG
Chain of Transitional endoplasmic reticulum ATPase (Homo sapiens, UniProt P55072) (P55072 whole entry): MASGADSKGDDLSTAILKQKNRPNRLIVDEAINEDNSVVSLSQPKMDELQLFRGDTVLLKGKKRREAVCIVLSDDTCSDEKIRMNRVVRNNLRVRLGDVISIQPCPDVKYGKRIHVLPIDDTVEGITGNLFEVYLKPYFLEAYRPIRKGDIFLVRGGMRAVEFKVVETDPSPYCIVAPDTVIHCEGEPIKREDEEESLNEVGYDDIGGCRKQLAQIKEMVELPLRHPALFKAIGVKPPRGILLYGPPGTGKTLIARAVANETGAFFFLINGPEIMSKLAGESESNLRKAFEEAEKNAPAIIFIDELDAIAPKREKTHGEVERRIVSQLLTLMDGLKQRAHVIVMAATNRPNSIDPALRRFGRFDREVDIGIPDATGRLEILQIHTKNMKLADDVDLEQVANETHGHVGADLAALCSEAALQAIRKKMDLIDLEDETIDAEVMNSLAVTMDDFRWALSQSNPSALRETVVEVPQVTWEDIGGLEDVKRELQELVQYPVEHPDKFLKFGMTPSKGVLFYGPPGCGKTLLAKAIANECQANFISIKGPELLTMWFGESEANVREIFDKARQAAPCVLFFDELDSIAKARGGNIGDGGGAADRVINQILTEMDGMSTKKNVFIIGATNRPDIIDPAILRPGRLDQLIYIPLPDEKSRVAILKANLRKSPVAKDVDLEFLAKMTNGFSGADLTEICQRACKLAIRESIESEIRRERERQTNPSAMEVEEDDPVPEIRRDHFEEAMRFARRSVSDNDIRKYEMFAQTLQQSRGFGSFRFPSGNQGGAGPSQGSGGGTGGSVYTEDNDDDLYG
Chain of Glyceraldehyde-3-phosphate dehydrogenase (P04406 whole entry): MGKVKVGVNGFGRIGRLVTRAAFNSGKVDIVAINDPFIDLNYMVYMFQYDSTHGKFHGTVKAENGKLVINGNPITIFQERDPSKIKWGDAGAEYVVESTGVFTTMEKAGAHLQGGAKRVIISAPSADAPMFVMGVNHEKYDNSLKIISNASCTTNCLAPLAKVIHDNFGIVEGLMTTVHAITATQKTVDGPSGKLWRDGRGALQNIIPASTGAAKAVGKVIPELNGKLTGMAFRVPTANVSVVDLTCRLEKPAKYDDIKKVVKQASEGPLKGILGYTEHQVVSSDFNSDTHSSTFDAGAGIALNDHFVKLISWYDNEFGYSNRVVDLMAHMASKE

Take `O=C(CSc1nnc(-c2ccc(OC(F)F)cc2)o1)NC(=O)NCc1ccco1`: the concentration for half-maximal inhibition (IC50) is > 109 µM (not active) in experiment [1], 11.6 µM (active) in experiment [2] and 15.9 µM (active) in experiment [3].
As for `Clc1cccc(C[n+]2cc(-c3ccccc3)n3c2CCC3)c1`, the EC50 in [4] was < 0.1 µM (active); in experiment [5] it was 0.944 µM (active); in experiment [6] it was > 60 µM (not active); in experiment [7], 0.007 µM (active).
With `Cc1ccc(-c2nn3c(C)nnc3s2)cc1NC(=O)CSc1ccc(Cl)cc1`, the EC50 is 24.7 µM (active) in experiment [8] and 3.08 µM (active) in experiment [9].
For `CC(=O)Oc1cc2c3c(c1)/C(=C1/SC(=S)NC1=O)C(=O)N3C(C)(C)C=C2C`, the IC50 in [10] was > 50 µM (not active); in experiment [12], > 50 µM (not active); in experiment [13] it was 1.21 µM (active); in experiment [14] it was 6.48 µM (active); in [15], 12.5 µM (active). For the same compound, in experiment [11], the CC50 is 14.3 µM (active).
Regarding `Cc1ccc(-n2c(N)c(C(N)=O)sc2=S)c(C)c1`, the 50% inhibitory concentration (IC50) in [16] and in [17] was > 50 µM (not active) each time.
On to `Cc1ccc(Nc2c(-c3ccc(C)o3)nc3ncccn23)cc1`, for which the figures for the EC50 in experiment [8] and in experiment [9] were 11.6 µM (active) and > 500 µM (not active), respectively.
On to `COc1ccc2c3c(cccc13)NN=C2C`, for which the EC50 in experiment [18] was 9.74 µM (active); in [19] it was 13 µM (active). The IC50 in [20] is > 100 µM (not active); in [21], > 100 µM (not active); in experiment [22], > 100 µM (not active); in experiment [23], 5.44 µM (active).
Regarding `CCN(CC)c1ccc(NC(=O)c2cc(Cl)ccc2OC)cc1`, in experiment [24], the cytotoxic concentration (CC50) was > 40 µM (active).
The same measure, in the same setting: the same measure for `Cc1cccc(-n2nc([N+](=O)[O-])c(NC3CCN(Cc4ccccc4)CC3)[n+]2[O-])c1`: > 40 µM (active).
In the case of `CC(=O)Oc1ccc2c(=O)c(Oc3ccccc3)coc2c1OC(C)=O`, the half-maximal inhibitory concentration (IC50) was 108 µM (active) in experiment [25] and > 50 µM (not active) in [17].

The values above are taken from ChEMBL document CHEMBL1201862, “PubChem BioAssay data set” (2004).
